Experimental data: PMC12498426, “Conformational Plasticity of LptC Regulates Lipopolysaccharide Transport by the LptB2FGC Complex” (Journal of the American Chemical Society, 2025)

Columns and labels:
[1] = biological target: T1, LptB2FG (Escherichia coli, UniProt P0A9V1+P0ADC6+P0AF98); set-up: gene lptF; conditions: POPE/POPG liposomes; 20 mM MgCl2; pH 7.5; 37 °C; 0-5 mM ATP; no LPS
T1 sequence (P0AF98 1-366): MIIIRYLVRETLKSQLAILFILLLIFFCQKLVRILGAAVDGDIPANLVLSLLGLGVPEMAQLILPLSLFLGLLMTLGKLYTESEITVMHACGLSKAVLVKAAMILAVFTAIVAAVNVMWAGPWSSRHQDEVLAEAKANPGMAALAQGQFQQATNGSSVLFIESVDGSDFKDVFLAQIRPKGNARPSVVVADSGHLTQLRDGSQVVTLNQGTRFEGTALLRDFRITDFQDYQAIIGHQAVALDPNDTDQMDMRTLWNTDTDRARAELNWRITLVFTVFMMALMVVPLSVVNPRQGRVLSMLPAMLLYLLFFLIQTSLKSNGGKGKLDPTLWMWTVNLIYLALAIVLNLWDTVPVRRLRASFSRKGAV
T1 sequence (P0ADC6 1-360): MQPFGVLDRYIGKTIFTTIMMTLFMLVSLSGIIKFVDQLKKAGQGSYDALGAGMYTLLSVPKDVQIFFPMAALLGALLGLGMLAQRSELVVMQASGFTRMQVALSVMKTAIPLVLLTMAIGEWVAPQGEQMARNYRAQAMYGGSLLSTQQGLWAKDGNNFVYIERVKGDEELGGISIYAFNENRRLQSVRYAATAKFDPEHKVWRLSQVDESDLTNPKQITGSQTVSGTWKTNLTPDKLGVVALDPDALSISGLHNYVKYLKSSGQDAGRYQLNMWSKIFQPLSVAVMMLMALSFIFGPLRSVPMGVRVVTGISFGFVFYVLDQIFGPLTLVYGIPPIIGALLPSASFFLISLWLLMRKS
T1 sequence (P0A9V1 2-241): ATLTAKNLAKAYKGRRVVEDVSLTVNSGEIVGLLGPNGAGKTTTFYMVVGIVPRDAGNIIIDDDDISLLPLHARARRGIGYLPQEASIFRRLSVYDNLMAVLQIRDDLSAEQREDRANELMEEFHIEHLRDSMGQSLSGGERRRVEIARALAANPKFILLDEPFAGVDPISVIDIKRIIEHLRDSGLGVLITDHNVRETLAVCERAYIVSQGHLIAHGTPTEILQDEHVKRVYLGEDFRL

[2] = biological target: T2, LptB2FGC (Escherichia coli, UniProt P0A9V1+P0ADC6+P0AF98); assay: nanoDSF thermal shift; format: binding; conditions: 2-fold molar excess of Ra-LPS; DDM micelles; pH 7.5; 5 mM MgCl2
T2 construct: gene lptF; in vitro assembled from LptB2FG (N-terminal His6 on LptB) and full-length LptC (C-terminal His6); liposomes or resolubilized in DDM; 2:1:1:1, 158 kDa; with Lipopolysaccharide export system protein LptC

[3] = biological target: T1, LptB2FG; assay: nanoDSF thermal shift; format: binding; set-up: gene lptF; full-length proteins, N-terminal His6-tag on LptB, pETDuet-1, expressed in E. coli, in DDM micelles or POPE/POPG liposomes; B2FG complex; conditions: 2-fold molar excess of Ra-LPS; DDM micelles; pH 7.5; 5 mM MgCl2
[4] = biological target: T3, LptB2FG complex (E. coli, UniProt P0A9V1 1-241; P0AF98 1-366; P0ADC6 1-360); assay: native MS; LILBID-MS of LptB2FGC resolubilised in DDM micelles, apo state, 20 mM Tris-HCl pH 7.5, 0.05% DDM; conditions: both partners purified
T3 construct: LptF, transmembrane domain subunit of the lipopolysaccharide transporter, E. coli; LptG, transmembrane domain subunit of the lipopolysaccharide transporter, E. coli; Uniformly 13C-labelled for the TEDOR experiments; also called 13C-LptB2FG; ABC transporter LptB2FG; source: E. coli, co-expressed from pETDuet-1, membranes solubilised in DDM, purified (Ni-NTA); expression as previously described; …
T3 sequence (looked up) 1: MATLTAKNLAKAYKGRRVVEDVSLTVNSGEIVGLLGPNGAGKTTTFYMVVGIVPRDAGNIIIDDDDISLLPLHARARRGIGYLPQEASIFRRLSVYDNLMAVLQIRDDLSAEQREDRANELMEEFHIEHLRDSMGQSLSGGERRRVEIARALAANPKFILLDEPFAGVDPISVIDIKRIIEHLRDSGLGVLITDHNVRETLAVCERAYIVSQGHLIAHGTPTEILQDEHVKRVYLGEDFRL
T3 sequence (looked up) 2: T1 sequence (P0AF98 1-366)
T3 sequence (looked up) 3: T1 sequence (P0ADC6 1-360)

[5] = biological target: T3, LptB2FG complex; assay: thermal shift assay (nanoDSF); LptB2FG and resolubilised LptB2FGC in 50 mM HEPES pH 7.5, 150 mM NaCl, 5 mM MgCl2, 5% glycerol, 0.05% DDM; 1 °C/min from 25 to 85 °C; first derivative of the 350 nm fluorescence; conditions: both partners purified

Nc1ncnc2c1ncn2[C@@H]1O[C@H](COP(=O)(O)OP(=O)(O)OP(=O)(O)O)[C@@H](O)[C@H]1O [ATP]
malachite green ATPase assay, proteoliposomes [1]: activity of LptB2FG and LptB2FGC was determined by measuring the release of inorganic phosphate

Ra-LPS
increase in melting temperature [2]: -271 °C
shift in melting temperature [3]: ~ 9 K

B1: LptC, full length with its transmembrane helix (natural protein, E. coli, UniProt P0ADV9 1-191, looked up)
chain: MSKARRWVIIVLSLAVLVMIGINMAEKDDTAQVVVNNNDPTYKSEHTDTLVYNPEGALSYRLIAQHVEYYSDQAVSWFTQPVLTTFDKDKIPTWSVKADKAKLTNDRMLYLYGHVEVNALVPDSQLRRITTDNAQINLVTQDVTSEDLVTLYGTTFNSSGLKMRGNLRSKNAELIEKVRTSYEIQNKQTQP
notes: LptC, E. coli, full length including the transmembrane helix; Isotope labelled for NMR (13C,15N-lysine or uniform 15N); also called 15N-LptC; 15N,13C-Lys-LptC; source: E. coli BL21(DE3), pBAD33.1, membranes solubilised in LS detergent, purified (Ni-NTA)
stoichiometry N [4]: 1 LptC per LptB2FG
increase of melting temperature (nanoDSF) [5]: 11 K
